pIC50: −log10 of the molar value. Read-outs that look alike come from different tables or passages of the source.
What was measured:
[1] = Chemical stability assay in solutions with various pH values (UPLC); type: physicochemical
Source text: 1. Detection Means and Conditions Used in the Chemical Stability Assay
• Detection method: Ultra-high performance liquid chromatography (UPLC) Chromatographic Conditions: • System: Ultra-high performance liquid chromatography system including pump, automatic sample injector, detector, and column oven • Column Waters Acquity UPLC BEH C18 (2.1*50 mm, 1.7 μm) • Detector: PDA detector • Detection wavelength: 225 nm • Mobile phase: A: 0.05% trifluoroacetic acid in water • B: acetonitrile • Gradient:
• Flow rate: 0.4 ml/min • Column temperature: 40° C. • Injecion volume: 2 μl 2. Study on the Chemical Stability of the Compounds of the Invention (1). Formulation of Solutions of Test Compound P9
Compound P9 was formulated as solutions in different buffer systems at a concentration of 0.2 mg/ml using PEG400 as cosolvent. These solutions were used for chemical stability study. The solutions with various pH values were formulated as follows: […]
Conditions for the chemical stability assay: the solutions of Compound P9 with various pH values were stored at 37° C. for 24 h. The content of Compound P9 was determined by HPLC at 0, 4, 8, 12, 14 and 24 h. […]

ERK2 kinase = ERK2 kinase (Homo sapiens (Human), UniProt P28482); assay: In vitro enzyme activity assay, ERK2 kinase (Z'-LYTE); type: biochemical
ERK2 kinase, sequence (P28482 whole entry): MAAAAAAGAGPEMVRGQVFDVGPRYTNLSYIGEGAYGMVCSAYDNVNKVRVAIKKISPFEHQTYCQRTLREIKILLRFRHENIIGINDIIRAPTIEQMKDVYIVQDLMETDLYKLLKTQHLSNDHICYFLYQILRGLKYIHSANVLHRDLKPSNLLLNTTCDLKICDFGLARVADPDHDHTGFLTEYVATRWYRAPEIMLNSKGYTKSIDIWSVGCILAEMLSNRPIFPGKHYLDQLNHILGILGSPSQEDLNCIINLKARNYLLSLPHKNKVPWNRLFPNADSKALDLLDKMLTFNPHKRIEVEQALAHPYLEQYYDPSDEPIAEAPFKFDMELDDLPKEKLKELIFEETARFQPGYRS

In the case of `Cn1nccc1Nc1cc(-c2cc(F)c3c(c2)CCN3C(=O)Cc2cccnc2Cl)ccn1` [Example P9, 2-(2-chloropyridin-3-yl)-1-(7-fluoro-5-(2-((1-methyl-1H-pyrazol-5-yl)amino)pyridin-4-yl)indolin-1-yl)ethan-1-one], the “Percentage (%) of the peak area of the total impurity” value ([1]; solution pH 2.0, 37° C., 0 h) was 0.84%, the “Percentage (%) relative to the peak area of the compound at the original point” value (“Percentage (%) relative to the peak area” for short) ([1]; solution pH 2.0, 37° C., 0 h) was 100.0% and the “Percentage (%) of the peak area of the total impurity” value ([1]; solution pH 2.0, 37° C., 4 h) was 0.85%. The “Percentage (%) relative to the peak area” value ([1]; solution pH 2.0, 37° C., 4 h) was 100.1%, the “Percentage (%) of the peak area of the total impurity” value ([1]; solution pH 2.0, 37° C., 8 h) was 0.85% and the “Percentage (%) relative to the peak area” value ([1]; solution pH 2.0, 37° C., 8 h) was 101.0%. For the same molecule, the “Percentage (%) of the peak area of the total impurity” value ([1]; solution pH 2.0, 37° C., 12 h) was 0.85%, the “Percentage (%) relative to the peak area” value ([1]; solution pH 2.0, 37° C., 12 h) was 100.6% and the “Percentage (%) of the peak area of the total impurity” value ([1]; solution pH 2.0, 37° C., 14 h) was 0.84%. For the same molecule, the “Percentage (%) relative to the peak area” value ([1]; solution pH 2.0, 37° C., 14 h) was 100.6%, the “Percentage (%) of the peak area of the total impurity” value ([1]; solution pH 2.0, 37° C., 24 h) was 0.85% and the “Percentage (%) relative to the peak area” value ([1]; solution pH 2.0, 37° C., 24 h) was 101.0%. For the same molecule, the “Percentage (%) of the peak area of the total impurity” value ([1]; solution pH 6.8, 37° C., 0 h) was 0.75%, the “Percentage (%) relative to the peak area” value ([1]; solution pH 6.8, 37° C., 0 h) was 100.0% and the “Percentage (%) of the peak area of the total impurity” value ([1]; solution pH 6.8, 37° C., 4 h) was 0.69%. For the same molecule, the “Percentage (%) relative to the peak area” value ([1]; solution pH 6.8, 37° C., 4 h) was 101.0%, the “Percentage (%) of the peak area of the total impurity” value ([1]; solution pH 6.8, 37° C., 8 h) was 0.71% and the “Percentage (%) relative to the peak area” value ([1]; solution pH 6.8, 37° C., 8 h) was 101.4%. The “Percentage (%) of the peak area of the total impurity” value ([1]; solution pH 6.8, 37° C., 12 h) was 0.71%, the “Percentage (%) relative to the peak area” value ([1]; solution pH 6.8, 37° C., 12 h) was 101.6% and the “Percentage (%) of the peak area of the total impurity” value ([1]; solution pH 6.8, 37° C., 14 h) was 0.68%. For the same molecule, the “Percentage (%) relative to the peak area” value ([1]; solution pH 6.8, 37° C., 14 h) was 100.8%, the “Percentage (%) of the peak area of the total impurity” value ([1]; solution pH 6.8, 37° C., 24 h) was 0.68% and the “Percentage (%) relative to the peak area” value ([1]; solution pH 6.8, 37° C., 24 h) was 101.7%. For the same molecule, the “Percentage (%) of the peak area of the total impurity” value ([1]; solution pH 7.4, 37° C., 0 h) was 0.72%, the “Percentage (%) relative to the peak area” value ([1]; solution pH 7.4, 37° C., 0 h) was 100.0% and the “Percentage (%) of the peak area of the total impurity” value ([1]; solution pH 7.4, 37° C., 4 h) was 0.67%. For the same molecule, the “Percentage (%) relative to the peak area” value ([1]; solution pH 7.4, 37° C., 4 h) was 100.3%, the “Percentage (%) of the peak area of the total impurity” value ([1]; solution pH 7.4, 37° C., 8 h) was 0.65% and the “Percentage (%) relative to the peak area” value ([1]; solution pH 7.4, 37° C., 8 h) was 101.4%. For the same molecule, the “Percentage (%) of the peak area of the total impurity” value ([1]; solution pH 7.4, 37° C., 12 h) was 0.67%, the “Percentage (%) relative to the peak area” value ([1]; solution pH 7.4, 37° C., 12 h) was 100.9% and the “Percentage (%) of the peak area of the total impurity” value ([1]; solution pH 7.4, 37° C., 14 h) was 0.71%. For the same molecule, the “Percentage (%) relative to the peak area” value ([1]; solution pH 7.4, 37° C., 14 h) was 101.3%, the “Percentage (%) of the peak area of the total impurity” value ([1]; solution pH 7.4, 37° C., 24 h) was 0.74% and the “Percentage (%) relative to the peak area” value ([1]; solution pH 7.4, 37° C., 24 h) was 101.1%. The “chemical stability (conclusion in words)” value ([1]; storage in solutions of various pH at 37° C. for 24 h) was “good chemical stability”, the pIC50 (ERK2 kinase; class symbols, read-out: ERK2 IC50) was ≥ 8.00 and the pIC50 (ERK2 kinase; read-out: IC50 against ERK2 kinase) was 8.48.
